Assay results taken from patent US20250144166A1, “COMPOSITIONS AND METHODS FOR INHIBITING RHO KINASE” (INTERLUDE BIOPHARMA CO., priority 2022, published 2025).
Entries after “also recorded” stand apart in the source; their conditions may differ. Read-outs that look alike come from different tables or passages of the source.

Tests used:
C2BBe1 cells [1] = assay: TEER in A/R-injured C2BBe1 cells with MLCK and ROCK inhibitors with or without LA; format: cell-based, human; settings: 10 mM LA, 1 μM Y-27632 dihydrochloride, 400 μM Peptide 18; A/R injury; FIG. 7
Procedure: To evaluate barrier function, the TEER was measured in A/R-injured C2BBe1 cells treated with or without LA.

tight junction proteins = settings: 10 mM LA
Procedure: (§1) Specifically, the distribution of tight junction proteins and actin structure was evaluated using western blots on membrane and cytosol fractions and immunofluorescence microscope analysis. Mem-PER Eukaryotic Membrane Protein Extraction Reagent Kit (Thermo Scientific) was used to fractionate membrane and cytosolic compartment. The extracted proteins were blotted with primary antibodies anti-ZO-1 and anti-occludin (Invitrogen). The cold methanol fixed monolayers were stained with primary antibodies (ZO-1 and occludin) and phalloidin (F-actin) for immunofluorescence microscope analysis. The stained monolayers were examined with an Olympus IX83 Inverted Motorized Microscope with cellSens software (Olympus, Tokyo, Japan). pMLC-2/MLC-2 expression was evaluated using western blot analysis with primary antibodies for pMLC-2 and MLC-2 (CST, Danvers, MA).

ZO-1, occludin, F-actin = test system: ZO-1, occludin, F-actin
Procedure: as §1

C2BBe1 cells [2] = settings: 10 mM LA
Procedure: For barrier function analysis, TEER was measured in monolayers of C2BBe1 cells treated with or without 10 mM LA. TEER was measured using a Chopstick Electrode Set (WPI, LLC, Sarasota, FL) on the basal and apical sides of a monolayer and attached to an Epithelial Volt Ohm Meter2 (WPI, LLC, Sarasota, FL).

C2BBe1 = test system: C2BBe1
Procedure: Specifically, monolayers of C2BBe1 were treated with 10 mM LA and were subjected to anoxia for 2 hours followed by reoxygenation with 21% O2 for 1 hour. Next-generation RNA sequencing and biostatistical analyses were employed to assess cellular regulatory pathways.

C2BBe1 intestinal cells = settings: 10 mM LA; A/R injury; compared to non-treated A/R injured cells
Procedure: Specifically, to evaluate barrier function, transepithelial electrical resistance (TEER) was measured in anoxia/reoxygenation (A/R)-injured C2BBe1 (Caco-2 brush border-expressing Caco-2) cells treated with or without larazotide acetate (LA). Monolayers of C2BBe1 were treated with LA (0.001, 0.1, 1, and 10 mM) and were subjected to anoxia for 2 hours followed by reoxygenation with 21% O2. To generate A/R injury, C2BBe1 cells were placed in a modular incubator chamber (Billups-Rothenberg, San Diego, CA) and flushed with 95% N2/5% CO2 for 5 minutes. The modular chamber was then sealed airtight and placed in an incubator for 2 hours. After 2 hours, the cells were removed from the modular incubator chamber and placed in a 21% O2 normal environment. TEER was measured to assess barrier function during A/R injury and recovery. The TEER was measured using a Chopstick Electrode Set (WPI, LLC, Sarasota, FL) on the basal and apical sides of a monolayer and attached to an Epithelial Volt Ohm Meter2 (WPI, LLC, Sarasota, FL).

C2BBe1 cells [3] = settings: 10 mM LA; regular media; 48 hours
Procedure: This experiment evaluated the role of LA in proliferation and migration. Specifically, proliferation of non-treated or LA-treated (10 mM) C2BBe1 cells was evaluated by the CCK-8 assay kit (Dojindo Molecular Technologies, Rockville, MD) according to the manufacturer's instructions. 10 mM LA was treated every other day to cells seeded in 96-well culture plates. Viable cells were evaluated with the CCK-8 Assay Kit for five consecutive days. Migration was assessed by seeding C2BBe1 cells in 3 well culture-inserts (ibidi GmbH, Gräfelfing, Germany) and removing the inserts after reaching confluence to create a “wound” in the cell monolayer. 10 mM LA was added to serum-free and regular media to assess migration and proliferation, respectively. Images were captured at 0, 4, 8, 24, and 48 hours with Axio Vert A1 microscope (Carl Zeiss AG, Oberkochen, Germany) and closing of the wound was analyzed by measuring migration distance with ImageJ software.

[4] = anoxic cells vs. exposed to LA for 3 h
[5] = control vs. exposed to LA for 3 h

O=S(=O)(c1cccc2cnccc12)N1CCCNCC1 [Fasudil]
TEER compared to non-treated A/R injured cells (C2BBe1 cells [1]): increased TEER

larazotide acetate
occludin in the membrane fraction (immunoblotting) (tight junction proteins; 1-hour reoxygenation, compared to non-treated anoxic injured cells): significantly (p<0.05) increased in the membrane
disruption of tight junction proteins during A/R injury (tight junction proteins; FIG. 3): prevented disruption of tight junction proteins
F-actin structure during A/R injury (ZO-1, occludin, F-actin; 10 mM LA, FIG. 4): protected
localization of tight junction and cytoskeleton proteins (ZO-1, occludin, F-actin) by immunofluorescence (ZO-1, occludin, F-actin; 1-hour reoxygenation, versus non-treated anoxic injured cells): revealed well-organized tight junction proteins and F-actin
TEER (C2BBe1 cells [2]; compared to non-treated A/R injured cells at 1 hour after treatment (FIG. 12 legend)): significantly increased TEER
TEER (C2BBe1 cells [2]; normal conditions, FIG. 12): increased TEER
translational processes (GO analysis) (C2BBe1; LA-treated cells compared to non-treated cells): significantly increased
Expression compared to control: AMOTL2 (C2BBe1; [4]): Down
Expression compared to control: EGR1 (C2BBe1; [4]): Down
Expression compared to control: HES1 (C2BBe1; [4]): Down
Expression compared to control: HSPH1 (C2BBe1; [4]): Down
Expression compared to control: JPH2 (C2BBe1; [4]): Up
Expression compared to control: NDRG1 (C2BBe1; [4]): Up
Expression compared to control: PFKFB4 (C2BBe1; [4]): Up
Expression compared to control: SAMD5 (C2BBe1; [4]): Down
Expression compared to control: SLC2A3 (C2BBe1; [4]): Up
Expression compared to control: TNS1 (C2BBe1; [4]): Up
Ras/Rho GTPase-binding and protein serine/threonine kinase activity (GO analysis) (C2BBe1; cells treated with LA, FIG. 10): differentially expressed
Expression compared to control: CEBPB (C2BBe1; [5]): Up
Expression compared to control: DDIT4 (C2BBe1; [5]): Up
Expression compared to control: EGR1 (C2BBe1; [5]): Up
Expression compared to control: H1F0 (C2BBe1; [5]): Up
Expression compared to control: ID2 (C2BBe1; [5]): Up
Expression compared to control: IGFBP4 (C2BBe1; [5]): Down
Expression compared to control: ITGA2 (C2BBe1; [5]): Down
Expression compared to control: MAT2A (C2BBe1; [5]): Down
Expression compared to control: SAMD5 (C2BBe1; [5]): Down
Expression compared to control: SYTL2 (C2BBe1; [5]): Down
TEER (C2BBe1 intestinal cells): significantly (p<0.001) increases the TEER; also recorded: significantly increased (p<0.001)
wound healing (C2BBe1 cells [3]): significantly increased wound healing
